“Also recorded” adds a separate entry of the source. One block for each molecule: values may come before it.
Key:
Endo-SR = biological target: T1, Endo-SR (Mus musculus, UniProt P56542); assay: Effect of M^2+ species and EDTA on murine Endo-SR activity (Example 1, FIG. 3B); format: biochemical
T1 construct: All nuclease assays were performed with Fraction IV enzyme (see below) as the source for Endo-SR activity, unless otherwise specified; endogenous in cells; host or cells: murine 38B9 pre-B cell line, nuclear extract, chromatographic Fraction IV (BioRex 70, 300 mM NaCl step)
T1 sequence (P56542 20-353): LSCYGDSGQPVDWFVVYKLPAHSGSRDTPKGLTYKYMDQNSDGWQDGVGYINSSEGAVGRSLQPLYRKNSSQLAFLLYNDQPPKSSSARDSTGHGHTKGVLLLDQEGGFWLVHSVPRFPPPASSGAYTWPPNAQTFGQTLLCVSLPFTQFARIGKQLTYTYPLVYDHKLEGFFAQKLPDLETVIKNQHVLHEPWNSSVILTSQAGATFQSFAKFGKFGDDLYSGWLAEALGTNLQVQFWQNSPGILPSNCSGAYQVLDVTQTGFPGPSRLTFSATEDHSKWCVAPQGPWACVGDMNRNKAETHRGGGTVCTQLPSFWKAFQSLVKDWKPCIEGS
Procedure: FIG. 3B. Effect of M^2+ species on Endo-SR activity. Nuclease assays were performed as previously described but with varied concentrations of different M^2+ species (or EDTA) replacing the standard (5 mM Mg^2+) assay condition. Activity values shown are expressed as percentages of an activity detected in a control assay (0 μM) containing no added M^2+ species.
Endonuclease assays were conducted in 10 μl reaction volumes containing 10 mM bis-Tris (pH6.5), 5 mM MgCl2, ˜250 pmoles of an end-labeled (^32P) DNA substrate, 1 μg of calf-thymus DNA, and 1 μl of an active Endo-SR fraction. […] All nuclease assays were performed with Fraction IV enzyme (see below) as the source for Endo-SR activity, unless otherwise specified. Nuclease assays performed for biochemical analysis of Endo-SR activity were conducted as described except for the addition or substitution of the test material. Reactions were incubated at 37° C. for 30 min, then mixed with an equal volume of formamide dye (Ausubel et al., 1987) and heated to 95° C. for 5 min prior to electrophoresis on an appropriate percentage (8-15%) sequencing gel. After electrophoresis, these gels were transferred to Whatman paper, dried, and exposed to film for 12-48 h. All detected cleavage products were compared to adjacent Maxam-Gilbert sequencing reactions, and adjusted one nucleotide 3′ to compensate for the removed base (Ausubel et al., 1987). After autoradiographic analysis, endonuclease activity was assayed by scintillation counting of intact substrate and specific cleavage products excised from the dried gel. End-labeled DNA substrates were prepared according to previously described methods (Hope et al., 1986).

murine Endo-SR = biological target: T2, murine Endo-SR (Mus musculus, UniProt P56542); assay: Effect of M^2+ cofactors and EDTA on murine Endo-SR activity (Example 2, FIG. 2B); format: biochemical; conditions: ≦50 μM
T2 construct: Nuclease assays were performed with purified bovine nuclease (Fraction V) and partially purified murine Endo-SR (Lyon et al., 1996); endogenous in cells
T2 sequence (P56542 20-353): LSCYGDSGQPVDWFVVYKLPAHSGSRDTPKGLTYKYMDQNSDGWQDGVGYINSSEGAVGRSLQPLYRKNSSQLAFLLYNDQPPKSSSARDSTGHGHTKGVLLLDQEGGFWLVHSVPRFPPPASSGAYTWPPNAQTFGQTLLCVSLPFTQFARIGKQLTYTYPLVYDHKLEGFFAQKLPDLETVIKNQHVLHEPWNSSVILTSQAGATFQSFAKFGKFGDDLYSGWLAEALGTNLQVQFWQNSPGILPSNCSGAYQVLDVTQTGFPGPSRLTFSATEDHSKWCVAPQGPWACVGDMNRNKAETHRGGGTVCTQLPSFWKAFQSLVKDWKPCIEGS
Procedure: (§1) FIG. 2B. Effect of various common divalent metal cation (M^2+) species on Endo-SR activity. Nuclease reaction buffer used in these assays contained no Mg^2+, and nuclease reactions were adjusted to various M or EDTA concentrations. Nuclease assays performed with supplemental M^2+ or EDTA were pre-incubated for 30 min on ice prior to addition of the DNA substrate. Specific endonuclease activity values detected in these assays were normalized against nuclease reactions, which contained no supplemental M^2+ or EDTA, and expressed as percentages of this reaction activity. Bovine and murine enzyme activities are represented by open and closed symbols, respectively.
(§2) Endo-SR activity was assayed in 10 μl reactions containing 50 mM sodium acetate (pH 5.5), ˜150 mM NaCl, 0.5 mM MgCl2, ˜250 fmoles of end-labeled DNA substrate (see below), 1 μg sheared salmon sperm DNA, and 1 μl of a diluted Endo-SR fraction. All reactions performed with bovine Endo-SR used Fraction V material (Table 2). Murine Endo-SR used in these assays was purified essentially as previously described (Lyon et al., 1996). All nuclease assays were incubated at 37° C. for 30 min, then mixed with 10 μl of formamide dye and denatured at 95° C. for 5 min prior to size-fractionation on standard sequencing gels. Endo-SR activity values (fmol/min) were determined by quantitation of the radioactivity present in specific nuclease cleavage products and intact substrate (negative control) excised from the dried gel (Lyon et al., 1996). Nuclease assays used to characterize the activity parameters of murine and bovine Endo-SR were performed essentially as previously described (Lyon et al., 1996).

bovine Endo-SR = biological target: T3, bovine Endo-SR (Bos taurus, UniProt P56541); assay: Effect of M^2+ cofactors and EDTA on bovine Endo-SR activity (FIG. 2B); format: biochemical; conditions: ≦50 μM
T3 construct: Nuclear extracts for enzyme purification were generated from bovine spleen; from tissue; host or cells: bovine spleen nuclear extract, Fraction V (Superose-12)
T3 sequence (P56541 20-365): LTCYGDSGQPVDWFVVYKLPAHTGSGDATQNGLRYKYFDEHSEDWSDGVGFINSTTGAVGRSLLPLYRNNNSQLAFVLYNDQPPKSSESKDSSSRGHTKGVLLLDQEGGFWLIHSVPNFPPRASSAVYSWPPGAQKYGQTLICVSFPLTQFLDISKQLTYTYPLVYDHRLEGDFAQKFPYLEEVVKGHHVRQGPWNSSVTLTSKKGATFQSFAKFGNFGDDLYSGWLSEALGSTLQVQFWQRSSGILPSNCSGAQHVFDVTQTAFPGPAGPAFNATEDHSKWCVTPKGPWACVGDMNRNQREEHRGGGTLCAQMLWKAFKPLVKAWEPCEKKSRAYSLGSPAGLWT
Procedure: as §1, §2

switch recombination = conditions: without demonstrably affecting cell proliferation or CH gene transcription; Loh et al., 1994a, 1995; cited from earlier work
[1] = biological target: the molecule itself; assay: native size exclusion chromatography (~35 000) compared with SDS-PAGE (Mr ~32 000)

effect on Endo-SR activity (Endo-SR; 500 μM): significantly enhanced
Molecule: [Ca+2] [Ca^2+]

inhibition of Endo-SR activity (Endo-SR; 5 mM): ~40% | effect on nuclease activity at low concentrations (murine Endo-SR): relatively resistant | effect on nuclease activity at low concentrations (bovine Endo-SR): relatively resistant
Molecule: O=C(O)CN(CCN(CC(=O)O)CC(=O)O)CC(=O)O [EDTA]
effect on Endo-SR activity (Endo-SR; 50 mM): completely inhibited; also recorded: complete inhibition

inhibition of Endo-SR activity (Endo-SR; 50 μM): ~50% | inhibition of Endo-SR activity (Endo-SR; 500 μM): ~95% | effect on nuclease activity at low concentrations (murine Endo-SR): significant degree of enzyme inhibition | effect on nuclease activity at low concentrations (bovine Endo-SR): significant degree of enzyme inhibition
Molecule: [Zn+2] [Zn^2+]

The remaining lines, values behind:

Molecule: [Mg+2] [Mg^2+]
effect on Endo-SR activity (Endo-SR; 500 μM): significantly enhanced; also recorded: maximal activity | effect on nuclease activity at low concentrations (murine Endo-SR): significant degree of enzyme inhibition | effect on nuclease activity at low concentrations (bovine Endo-SR): significant degree of enzyme inhibition

Molecule: O=C([O-])c1cc(=O)c2c(OCC(O)COc3cccc4oc(C(=O)[O-])cc(=O)c34)cccc2o1.[Na+].[Na+] [disodium cromoglycolate]
effect on switch rearrangement (switch recombination): dramatically repress switch rearrangement

Molecule: CCCc1c2oc(C(=O)O)cc(=O)c2cc2c(=O)cc(C(=O)O)n(CC)c12 [nedocromil sodium]
effect on switch rearrangement (switch recombination): dramatically repress switch rearrangement

B1: purified bovine Endo-SR (Fraction V, from bovine spleen nuclear extract) (enzyme, UniProt P56541 20-365, looked up)
chain: LTCYGDSGQPVDWFVVYKLPAHTGSGDATQNGLRYKYFDEHSEDWSDGVGFINSTTGAVGRSLLPLYRNNNSQLAFVLYNDQPPKSSESKDSSSRGHTKGVLLLDQEGGFWLIHSVPNFPPRASSAVYSWPPGAQKYGQTLICVSFPLTQFLDISKQLTYTYPLVYDHRLEGDFAQKFPYLEEVVKGHHVRQGPWNSSVTLTSKKGATFQSFAKFGNFGDDLYSGWLSEALGSTLQVQFWQRSSGILPSNCSGAQHVFDVTQTAFPGPAGPAFNATEDHSKWCVTPKGPWACVGDMNRNQREEHRGGGTLCAQMLWKAFKPLVKAWEPCEKKSRAYSLGSPAGLWT
notes: Native enzyme purified to homogeneity; also called bovine Endo-SR nuclease; Mr ~32 000 protein species
binding result [1]: no binding
